Experimental data as given in PMC5114273, “Activity of Scorpion Venom-Derived Antifungal Peptides against Planktonic Cells of Candida spp. and Cryptococcus neoformans and Candida albicans Biofilms” (Frontiers in Microbiology, 2016).
Converted amounts (≈) assume the structure as drawn. Ends that are not written are not given here.

Legend:
[1] = tested on: C. albicans (SC5314); assay: microbe, parasite or virus in culture; assay type: cell-based, Candida albicans; conditions: Candida albicans, SC5314; RPMI-1640 pH 7.0, 2 × 10^3 cells/mL, 37°C, 24 h; complete inhibition of visible growth; at least three experiments; read-out: Minimum inhibitory concentration, C. albicans (SC5314)
Excerpt: (§1) Candida albicans strain SC 5314 (ATCC MYA-2876) was provided by Dr. Joshua Nosanchuk (New York, NY, USA). C. glabrata ATCC 90030, C. parapsilosis ATCC 22019, and C. tropicalis ATCC 750 were provided by Dr. Érika Kioshima (Universidade Estadual de Maringá, Paraná, Brazil). C. neoformans var. grubii strain H99 (serotype A, ATCC 208821) was provided by Dr. John Perfect (Durham, NC, USA). C. neoformans var. neoformans B3501 (serotype D, ATCC 34873) was obtained from ATCC (Manassas, VA, USA). All strains were stored as frozen stocks in 35% glycerol at -80°C. Before each experiment, all Candida spp. strains were grown in Sabouraud’s dextrose broth overnight at 30°C with agitation. C. neoformans strains were grown in the same conditions for 24 h. Fungal cells were collected by centrifugation, washed three times in phosphate buffered saline (PBS) (137 mM NaCl, 2.7 mM KCl, 10 mM Na2HPO4, 2 mM KH2PO4) and inoculated in Roswell Park Memorial Institute (RPMI) 1640 medium supplemented with L-glutamine and buffered to pH 7.0 with 165 mM 3-(N-morpholino)propanesulfonic acid for experiments described below.
(§2) In vitro antifungal assays were performed according to broth microdilution susceptibility test from Clinical and Laboratory Standards Institute (CLSI) M27-A3 guidelines with some modifications. Briefly, twofold serial dilutions of each peptide were prepared in 96-well polystyrene microplates to a final volume of 50 μL. Amphotericin B (Amp B; A2942, Sigma-Aldrich), a known antifungal drug, was used as a positive control. Final concentrations of each peptide and Amp B ranged from 100 to 0.78 μM and 16 to 0.03 μg/mL, respectively, except in tests with C. glabrata and C. parapsilosis, where the final peptide concentration ranged from 400 to 0.78 μM. In each plate, wells were included without peptide as a growth control. Then, 50 μL of the adjusted inoculum in RPMI-1640 medium were added to each well to a final concentration of 2 × 10^3 cells/mL for Candida spp. and 10^4 cells/mL for C. neoformans strains. The plates were incubated at 37°C for 24 and 48 h, respectively. The strains of C. neoformans were also incubated with shaking (200 rpm). […] The experiments were performed at least three times on separate dates.

[2] = tested on: C. tropicalis (ATCC 750); assay: microbe, parasite or virus in culture; assay type: cell-based, Candida tropicalis; conditions: Candida tropicalis, ATCC750; RPMI-1640 pH 7.0, 2 × 10^3 cells/mL, 37°C, 24 h; complete inhibition of visible growth; at least three experiments; read-out: Minimum inhibitory concentration, C. tropicalis (ATCC 750)
Excerpt: as §1, §2

[3] = tested on: C. parapsilosis (ATCC 22019); assay: microbe, parasite or virus in culture; assay type: cell-based, Candida parapsilosis; conditions: Lodderomyces parapsilosis, ATCC22019; RPMI-1640 pH 7.0, 2 × 10^3 cells/mL, 37°C, 24 h; peptides 400 to 0.78 μM; at least three experiments; read-out: Minimum inhibitory concentration, C. parapsilosis (ATCC 22019)
Excerpt: as §1, §2

[4] = tested on: C. glabrata (ATCC 90030); assay: microbe, parasite or virus in culture; assay type: cell-based, Candida glabrata; conditions: Nakaseomyces glabratus, ATCC90030; RPMI-1640 pH 7.0, 2 × 10^3 cells/mL, 37°C, 24 h; peptides 400 to 0.78 μM; at least three experiments; read-out: Minimum inhibitory concentration, C. glabrata (ATCC 90030)
Excerpt: as §1, §2

[5] = tested on: C. neoformans (H99 serotype A); assay: microbe, parasite or virus in culture; assay type: cell-based, Cryptococcus neoformans var. grubii; conditions: Cryptococcus neoformans; RPMI-1640 pH 7.0, 10^4 cells/mL, 37°C, 48 h, shaking 200 rpm; at least three experiments; read-out: Minimum inhibitory concentration, C. neoformans (H99 serotype A)
Excerpt: as §1, §2

[6] = tested on: C. neoformans (B3501 serotype D); assay: microbe, parasite or virus in culture; assay type: cell-based, Cryptococcus neoformans var. neoformans; conditions: Cryptococcus neoformans; RPMI-1640 pH 7.0, 10^4 cells/mL, 37°C, 48 h, shaking 200 rpm; at least three experiments; read-out: Minimum inhibitory concentration, C. neoformans (B3501 serotype D)
Excerpt: as §1, §2

[7] = tested on: C. albicans SC 5314 biofilm, initial cell adherence; assay: C. albicans biofilm, initial adherence (XTT reduction); assay type: cell-based, Candida albicans; conditions: at 0.25 μg/mL
Protocol: (§3) The effects of the peptides NDBP-4.23, ToAP1, ToAP2, and NDBP-5.7 on C. albicans biofilms were analyzed according to the protocol described by [Pierce et al. (2008)]. Briefly, C. albicans SC 5314 (10^6 cells/mL) was grown on 96-well polystyrene microplates and 4 h after seeding the peptides or Amp B were added to assess their effects on the first step of biofilm formation, the initial cell adherence. After 24 h of treatment, biofilm formation was measured by the metabolic assay based on the reduction of 2,3-bis-(2-methoxy-4-nitro-5-sulfophenyl)-2H-tetrazolium-5-carboxanilide (XTT). For the purpose of investigating effects of peptides on mature biofilms, the Candida cells were allowed to grow for 24 h prior to addition of the peptides or Amp B and the XTT assay was performed in the same way. All results were analyzed for statistical significance using analysis of variance (ANOVA) followed by Tukey post-test using GraphPad Prism 6 and expressed in terms of biofilm viability as XTT-readings percentage normalized by the control groups. Each compound was tested in triplicate and the experiments were performed at least twice on separate dates.

[8] = tested on: C. albicans SC 5314 mature biofilm; assay: C. albicans mature biofilm (XTT reduction); assay type: cell-based, Candida albicans; conditions: at 2 μg/mL
Protocol: as §3

[9] = tested on: C. albicans SC5314 biofilm; assay: Sessile MIC50 of C. albicans SC5314 biofilm (XTT reduction, supplement); assay type: cell-based, Candida albicans
Protocol: Figure 2R. Difference between supernatant volume used for OD 490nm reading (50 and 80µL) using XTT
reduce assay. The experiments were performed four times independently. Statistical analyses: two-way
ANOVA test and Turkey pos-test (**** P ≤ 0,0001; *** P ≤ 0,001; ** P ≤ 0,01; * P ≤ 0,05).
Table 1R. Sessile Minimum Inhibitory Concentration 50% (SMIC50) of C. albicans SC5314
biofilm in response to Amphotericin B serially diluted from 0,01562 to 16 µg/mL.

[10] = tested on: peritoneal macrophages of BALB/c mice; assay: Cytotoxic test using peritoneal macrophages (LDH release); assay type: cell-based, mouse; conditions: 24 h, threshold of acceptable cytotoxicity 50% viability, three independent experiments
Protocol: BALB/c mice were injected with thioglycolate 72 h before peritoneal macrophages were harvested. They were diluted to a concentration of 10^6 cell/mL in RPMI-1640 supplemented with penicillin/streptomycin (100 U/mL, 100 µg/mL), 2 mM L-glutamine, 2 mM non-essential amino acids, 1 mM sodium pyruvate (all reagents from Sigma-Aldrich, St Louis, MO, USA) and 10% fetal bovine serum (FBS), and incubated in 96-well polystyrene microplates at 37°C, 5% CO2 for 24 h. The peptides were added then and cells were further incubated for 24 h as described previously ([Cruz et al., 2005]). Three independent experiments were performed. Cytotoxic activity was evaluated by the release of cytoplasmic enzyme lactate dehydrogenase due to cell lysis using the Cytotox kit (Promega). Briefly, at the end of the incubation period, supernatants were collected, the adhered cells were washed and the toxicity was determined according to the manufacturer’s protocol. The procedures were approved by the Ethics Committee on Animal Research of Institute of Biology (UnBDOC 52657/2011)/University of Brasília (UnB).

[11] = Stability assays of native and modified peptide; assay type: physicochemical; conditions: non-modified versus modified peptide

| Compound | MIC [1] [µM] | MIC [2] [µM] | MIC [3] [µM] | MIC [4] [µM] | MIC [5] [µM] | MIC [6] [µM] | Reduction in biofilm viability, initial adherence [7] | Reduction in biofilm viability, three-dimensional architecture [8] | SMIC50 ([9]; 4h biofilm, 50 µl supernatant read at OD 490nm) | SMIC50 ([9]; 4h biofilm, 80 µl supernatant read at OD 490nm) | SMIC50 ([9]; 24h biofilm, 50 µl supernatant read at OD 490nm) | SMIC50 ([9]; 24h biofilm, 80 µl supernatant read at OD 490nm) | SMIC50 ([9]; 48h biofilm, 50 µl supernatant read at OD 490nm) | SMIC50 ([9]; 48h biofilm, 80 µl supernatant read at OD 490nm) | Concentrations showing low cytotoxicity [10] | Stability compared with the modified peptide [11] |
| --- | --- | --- | --- | --- | --- | --- | --- | --- | --- | --- | --- | --- | --- | --- | --- | --- |
| C[C@@H]1[C@H](O)[C@@H](C)/C=C/C=C/C=C/C=C/C=C/C=C/C=C/[C@H](O[C@@H]2O[C@H](C)[C@@H](O)[C@H](N)[C@@H]2O)C[C@@H]2O[C@](O)(C[C@@H](O)C[C@@H](O)[C@H](O)CC[C@@H](O)C[C@@H](O)CC(=O)O[C@H]1C)C[C@H](O)[C@H]2C(=O)O [Amp B, Amphotericin B] | 1.08 (≈ 0.998 µg/mL) | 2.16 (≈ 2 µg/mL) | 2.16 (≈ 2 µg/mL) | 1.08 (≈ 0.998 µg/mL) | 0.27 (≈ 0.25 µg/mL) | 0.135 (≈ 0.125 µg/mL) | at least 80% | at least 80% | 0,08420 ug/mL | 0,06812 ug/mL | 0,1919 ug/mL | 0,1732 ug/mL | 0,2857 ug/mL | 0,2424 ug/mL | – | – |
| FFGTLFKLGSKLIPGVMKLFSKKKER [ToAP2] | – | – | – | – | – | – | – | – | – | – | – | – | – | – | below 6.25 μM | lower stability |
